According to patent US20180179198A1, “TRICYCLIC MODULATORS OF TNF SIGNALING” (AbbVie Inc., priority 2015, published 2018):

Target: TNFα trimer (Homo sapiens, UniProt P01375)
Experiment: TNFα FP Competitive Binding Assay
Conditions: TNFα FP competitive binding assay; class symbols A/B/C; read-out: TNF IC50
Procedure, shortened: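 Compounds, 12-point 1:3 dilutions topping at 100 μM (2.0% DMSO) or 338 μM (3.4% DMSO) final, compete with 1 nM fluorescent probe for 20 nM TNFα trimer in HEPES/NaCl/EDTA/Triton buffer. After 18-24 h incubation at 37 °C plus 1 h rt equilibration, background-subtracted polarization is read and fitted with variable slope.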

Sequence of TNFα trimer (P01375 77-233 limits assumed): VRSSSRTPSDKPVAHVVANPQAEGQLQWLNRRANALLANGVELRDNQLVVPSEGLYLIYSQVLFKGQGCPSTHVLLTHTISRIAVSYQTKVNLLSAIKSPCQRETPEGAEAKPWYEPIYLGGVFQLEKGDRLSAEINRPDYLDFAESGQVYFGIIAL

| IC50 [nM] | SMILES |
| --- | --- |
| < 1000 | OC1CCN(c2ncc(-c3ccc4nc5n(c4c3)[C@@H](c3ccccc3)COC5)cn2)CC1(F)F (stereo partly shown) [W.1] |
| 1000 to 10000 | CC(C)(O)c1ncc(-c2ccc3nc4n(c3c2)[C@H](c2ccccc2)CCC4)cn1 [Y.3] |
| 1000 to 10000 | CN(C)c1ncc(-c2ccc3nc4n(c3c2)C(c2ccccc2)COC4)cn1 (stereo not shown) [T.14] |
| < 1000 | COc1ccccc1[C@H]1CCc2nc3ccc(-c4cnc(N5CCN6C(=O)NC[C@@H]6C5)nc4)nc3n21 [AO.1] |
| 1000 to 10000 | COC(=O)C1CCC(Oc2cc(-c3ccc4nc5n(c4n3)[C@@H](c3ccccc3)CC5)ccn2)C1 (stereo partly shown) [AS.5] |
| < 1000 | COc1ccccc1C1CCCc2nc3ccc(-c4cnc(N5CCC(O)C(F)(F)C5)nc4)cn3c21 (stereo not shown) [AJ.4] |
| < 1000 | CC(C)(O)c1ncc(-c2ccc3nc4n(c3n2)[C@@]2(COC4)COc3ccccc32)cn1 [Y.13] |
| 10000 to 100000 | CC(C)(O)c1ncc(-c2ccc3nc4n(c3c2)[C@H](c2ccccc2)CC4)cn1 [Y.4] |
| 1000 to 10000 | c1ccc([C@H]2CCc3nc4ccc(-c5ccnc(OC6CCCCC6)c5)nc4n32)cc1 [AS.3] |
| < 1000 | O[C@H]1CC[C@H](Oc2cc(-c3ccc4nc5n(c4n3)C3(COC5)COc4ccccc43)ccn2)CC1 (stereo partly shown) [AX.1] |
| < 1000 | O=C1NCC2CN(c3ncc(-c4ccc5nc6n(c5c4)C(c4cccc(C(F)(F)F)c4)COC6)cn3)CCN12 (stereo not shown) [AH.4] |
| 1000 to 10000 | c1ccc(C2COCc3nc4ccc(-c5cnc(N6CCCOCC6)nc5)nc4n32)cc1 (stereo not shown) [AZ.3] |
| < 1000 | O=C1CN(c2ncc(-c3ccc4nc5n(c4n3)[C@@H](c3ccccc3)COC5)cn2)CCN1 [AB.3] |
| 1000 to 10000 | OC(CC1CC1)c1ncc(-c2ccc3nc4n(c3n2)[C@@H](c2ccccc2)CC4)cn1 (stereo partly shown) [AL.2] |
| 1000 to 10000 | c1ccc2c(c1)OCC21COCc2nc3ccc(-c4ccnc(OC5CCOCC5)c4)nc3n21 (stereo not shown) [BG.1] |
| 1000 to 10000 | CC(O)(c1ncc(-c2ccc3nc4n(c3n2)[C@@H](c2ccccc2)CC4)cn1)C1CCOCC1 (stereo partly shown) [AL.4] |
| < 1000 | c1ccc2c(c1)OCCC21COCc2nc3ccc(-c4ccnc(OC5CCOCC5)c4)nc3n21 (stereo not shown) [BA.8] |
| 10000 to 100000 | CC(C)(O)Cn1ccc(-c2ccc3nc4n(c3n2)[C@@H](c2ccccc2)CC4)cc1=O [AK.3] |
| < 1000 | OC1CCC(Oc2cc(-c3ccc4nc5n(c4n3)C3(COC5)COc4ccccc43)ccn2)C1 (stereo not shown) [AX.3] |
| < 1000 | OC1CCN(c2ncc(-c3ccc4nc5n(c4n3)[C@@H](c3ccccc3)COC5)cn2)CC1 [AB.4] |
| 1000 to 10000 | c1ccc(C2C3CC(C3)c3nc4ccc(-c5cnc(N6CCOCC6)nc5)nc4n32)cc1 (stereo not shown) [BE.1] |
| < 1000 | COc1ccccc1C1CCCc2nc3ccc(-c4cnc(N5CCC(F)(CO)CC5)nc4)cn3c21 (stereo not shown) [AJ.3] |
| < 1000 | CC(C)(O)c1ncc(-c2ccc3nc4n(c3c2)C(c2ccccc2)COC4)cn1 (stereo not shown) [T.35] |
| 1000 to 10000 | COc1ncc(-c2ccc3nc4n(c3n2)C2(COC4)COc3ccccc32)cn1 (stereo not shown) [BG.2] |

Same assay, conditions: Table BK; read-out: TNF IC50

| IC50 [nM] | SMILES |
| --- | --- |
| 1000 to 10000 | OC[C@H]1CC[C@H](COc2cc(-c3ccc4nc5n(c4n3)[C@@H](c3ccccc3)CC5)ccn2)CC1 [BK.3] |

Same assay, conditions: Table BO; read-out: TNF IC50

| IC50 [nM] | SMILES |
| --- | --- |
| 1000 to 10000 | OC1CCN(c2ncc(-c3ccc4nc5n(c4n3)C3(COCc4ccccc43)COC5)cn2)CC1 (stereo not shown) [BO.1] |

Same assay, conditions: fluorescence polarization competition; 20 nM TNFα trimer, 1 nM OregonGreen488 probe; read-out: TNF IC50 (TNFα FP binding assay IC50)

| IC50 [nM] | SMILES |
| --- | --- |
| < 1000 | c1ccc([C@H]2CCc3nc4ccc(-c5ccnc(OC6CCOCC6)c5)nc4n32)cc1 [Example 47, (R)-8-Phenyl-2-(2-((tetrahydro-2H-pyran-4-yl)oxy)pyridin-4-yl)-7,8-dihydro-6H-pyrrolo[2′,1′:2,3]imidazo[4,5-b]pyridine] |
| < 1000 | O=C1NCC2CN(c3ncc(-c4ccc5nc6n(c5n4)C(c4ccccc4)CC6)cn3)CCN12 (stereo not shown) [L.4] |
| 1000 to 10000 | O=C1CN(c2ncc(-c3ccc4nc5n(c4c3)[C@@H](c3ccccc3)COC5)cn2)CCCN1 [G.9] |
| 1000 to 10000 | c1ccc([C@H]2COCc3nc4ccc(-c5cnc(N6CCC7(COC7)C6)nc5)cc4n32)cc1 [G.16] |
| < 1000 | O=C1NC[C@H]2CN(c3ncc(-c4ccc5nc6n(c5n4)[C@@H](c4ccccc4)CC6)cn3)CCN12 [Example 31, (S)-7-(5-((R)-8-Phenyl-7,8-dihydro-6H-pyrrolo[2′,1′:2,3]imidazo[4,5-b]pyridin-2-yl)pyrimidin-2-yl)hexahydroimidazo[1,5-a]pyrazin-3(2H)-one] |
| 10000 to 100000 | O=C1CN(c2ncc(-c3cnc4nc5n(c4c3)C(c3ccccc3)CCC5)cn2)CCN1 (stereo not shown) [Q.1] |
| < 1000 | OC1CC2(CCN(c3ncc(-c4ccc5nc6n(c5c4)[C@@H](c4ccccc4)CC6)cn3)CC2)C1 [F.1] |
| < 1000 | CC1(O)CCN(c2ncc(-c3ccc4nc5n(c4c3)[C@@H](c3ccccc3)COC5)cn2)CC1 [G.22] |
| 1000 to 10000 | OC1(c2ccc(F)cc2)CCCc2nc3ccc(-c4cnc(N5CCOCC5)nc4)cn3c21 (stereo not shown) [I.6] |
| 1000 to 10000 | N#CCOc1cccc(-c2ccc3nc4n(c3c2)C(c2ccccc2)CC4)c1 (stereo not shown) [A.18] |
| < 1000 | OC1CCN(c2ncc(-c3nc4c(cc3F)nc3n4[C@@H](c4ccccc4)CC3)cn2)CC1 [Example 55, (R)-1-(5-(3-fluoro-8-phenyl-7,8-dihydro-6H-pyrrolo[2′,1′:2,3]imidazo[4,5-b]pyridin-2-yl)pyrimidin-2-yl)piperidin-4-ol] |
| < 1000 | OC1CCN(c2ncc(-c3ccc4nc5n(c4c3)[C@@H](c3ccccc3)CC5)cn2)CC1 [F.3] |
| 1000 to 10000 | C1=C(c2ccc3nc4n(c3n2)C2(COC4)COc3ccccc32)CCN(c2ccncn2)C1 (stereo not shown) [Example 73, 2′-(1-(Pyrimidin-4-yl)-1,2,3,6-tetrahydropyridin-4-yl)-2H,6′H,8′H-spiro[benzofuran-3,9′-pyrido[3′,2′:4,5]imidazo[2,1-c][1,4]oxazine]] |
| < 1000 | c1ccc([C@H]2CCc3nc4ccc(-c5cnc(N6CCOCC6)nc5)cc4n32)cc1 [D.3] |
| < 1000 | Cc1ccc(C)c(C2CCc3nc4ccc(-c5cnc(C(C)(C)O)nc5)cc4n32)c1 (stereo not shown) [B.2, 2-(5-(1-(2,5-Dimethylphenyl)-2,3-dihydro-1H-benzo[d]pyrrolo[1,2-a]imidazol-7-yl)pyrimidin-2-yl)propan-2-ol] |
| 1000 to 10000 | c1ccc(C2CCc3nc4ccc(N5CCN(c6ncccn6)CC5)nc4n32)cc1 (stereo not shown) [Example 18, 8-Phenyl-2-(4-(pyrimidin-2-yl)piperazin-1-yl)-7,8-dihydro-6H-pyrrolo[2′,1′:2,3]imidazo[4,5-b]pyridine] |
| 1000 to 10000 | CN(C)c1ccc(-c2ccc3nc4n(c3c2)C(c2ccccc2)CC4)cn1 (stereo not shown) [A.12] |
| < 1000 | O=C1NCC2CN(c3ncc(-c4ccc5nc6n(c5c4)[C@@H](c4ccccc4)CC6)cn3)CCN12 (stereo partly drawn) [Example 3, 7-(5-((R)-1-Phenyl-2,3-dihydro-1H-benzo[d]pyrrolo[1,2-a]imidazol-7-yl)pyrimidin-2-yl)hexahydroimidazo[1,5-a]pyrazin-3(2H)-one] |
| < 1000 | Cc1ccc(C)c(C2CCc3nc4ccc(-c5cnc(N6CCOCC6)nc5)nc4n32)c1 (stereo not shown) [N.1] |

| IC50 [nM] | SMILES |
| --- | --- |
| < 1000 | c1ccc([C@H]2COCc3nc4ccc(-c5cnc(N6CCn7cnnc7C6)nc5)cc4n32)cc1 [G.28] |
| 1000 to 10000 | CCNC(=O)c1ccc(-c2ccc3nc4n(c3c2)C(c2ccccc2)CC4)cc1 (stereo not shown) [A.35] |
| < 1000 | OCCC1(O)CCN(c2ncc(-c3ccc4nc5n(c4c3)[C@@H](c3ccccc3)COC5)cn2)CC1 [G.20] |
| < 1000 | OC1CCN(c2ncc(-c3ccc4nc5n(c4n3)C(c3ccccc3)CCC5)cn2)CC1 (stereo not shown) [O.4] |
| 1000 to 10000 | O=C(NC1CC1)c1ccc(-c2ccc3nc4n(c3c2)C(c2ccccc2)CC4)cc1 (stereo not shown) [A.19] |
| 1000 to 10000 | c1ccc([C@H]2CCc3nc4ccc(-c5ccnc(O[C@H]6CCNC6)c5)nc4n32)cc1 [Example 49] |
| 1000 to 10000 | c1ccc([C@H]2CCc3nc4ccc(-c5ccnc(OCC6CCOCC6)c5)nc4n32)cc1 [Example 61, (R)-8-Phenyl-2-(2-((tetrahydro-2H-pyran-4-yl)methoxy)pyridin-4-yl)-7,8-dihydro-6H-pyrrolo[2′,1′:2,3]imidazo[4,5-b]pyridine] |
| 1000 to 10000 | Cc1ccc(-c2ccc3nc4n(c3c2)C(c2ccccc2)CC4)cn1 (stereo not shown) [A.14] |
| 1000 to 10000 | Nc1ncc(-c2ccc3nc4n(c3c2)C(c2ccccc2)CC4)cn1 (stereo not shown) [A.23] |
| 1000 to 10000 | CC(C)(O)c1ncc(-c2ccc3nc4n(c3n2)C(c2ccccc2)C2CC4C2)cn1 (stereo not shown) [Example 63, 2-(5-(9-Phenyl-6,7,8,9-tetrahydro-6,8-methanoimidazo[1,2-a:5,4-b′]dipyridin-2-yl)pyrimidin-2-yl)propan-2-ol] |
| < 1000 | CC(C)(O)c1ncc(-c2ccc3nc4n(c3c2)[C@@H](c2ccccc2)CC4)cn1 [Example 2, (R)-2-(5-(1-Phenyl-2,3-dihydro-1H-benzo[d]pyrrolo[1,2-a]imidazol-7-yl)pyrimidin-2-yl)propan-2-ol] |
| 10000 to 100000 | O=C1CN(c2ncc(-c3cc4c(cn3)nc3n4C(c4ccccc4)CC3)cn2)CCN1 (stereo not shown) [P.3] |
| 1000 to 10000 | c1ccc(C2CCc3nc4ccc(-c5cncnc5)cc4n32)cc1 (stereo not shown) [A.24] |
| < 1000 | NS(=O)(=O)N1CCN(c2ncc(-c3ccc4nc5n(c4c3)[C@@H](c3ccccc3)COC5)cn2)CC1 [G.12] |
| 1000 to 10000 | O=C(O)C1CCN(c2ncc(-c3ccc4nc5n(c4c3)C(c3ccccc3)CCC5)cn2)CC1 (stereo not shown) [H.2] |
| 10000 to 100000 | c1ccc([C@@H]2CCc3nc4ccc(-c5cnc(N6CCOCC6)nc5)cc4n32)cc1 [C.1] |
| 1000 to 10000 | O=C1OCC2CN(c3ncc(-c4ccc5nc6n(c5c4)[C@@H](c4ccccc4)COC6)cn3)CCN12 (stereo partly shown) [G.27] |
| 1000 to 10000 | OCCC1(O)CCN(c2ncc(-c3ccc4nc5n(c4c3)[C@@H](c3ccccc3)COC5)cn2)C1 (stereo partly shown) [G.31] |
| < 1000 | CC(=O)N1CCN(c2ncc(-c3ccc4nc5n(c4n3)[C@@H](c3ccccc3)CC5)cn2)C[C@H]1C [Example 41, 1-((R)-2-Methyl-4-(5-((R)-8-phenyl-7,8-dihydro-6H-pyrrolo[2′,1′:2,3]imidazo[4,5-b]pyridin-2-yl)pyrimidin-2-yl)piperazin-1-yl)ethanone] |
